In article PMC13266999, “Designing Antibiotics with Inherent Resistance to Efflux as a Strategy to Revive Discovery against Multidrug-Resistant Pathogens” (Journal of Medicinal Chemistry, 2026):
Converted amounts (≈) assume the structure as drawn. “And” between values parts separate entries of the source, which are not always exact repeats. Identical values can stand only once. Like-named read-outs stand apart in the source and are kept apart here.

Columns and labels:
[1] = test system: S. aureus; test: Serial passaging, MIC of adapted strains; type: cell-based
Experimental: MICs were performed on the first and 10th passage.

[2] = test system: S. haemolyticus; test: MIC (microbroth dilution); type: cell-based, Staphylococcus haemolyticus; conditions: SH324
Experimental: (§1) All bacteria were maintained on tryptic soy agar (TSA), except Streptococcus spp., which were maintained on Columbia agar plates containing 5% horse blood. All bacterial assays were carried out in tryptic soy broth (TSB), except for Streptococcus spp. which were grown in cation-adjusted Mueller Hinton broth containing 2.5% lysed horse blood. Bacteria were grown to stationary phase in liquid culture overnight, with shaking at 200 rpm, before being back diluted to the relevant starting concentration for each assay below. MICs were measured by the microbroth dilution method. […] Absorbance at OD600 was read on a CLARIOstar spectrophotometer (BMG Labtech) and the MIC was defined as the minimum concentration of compound where no visible growth was detected. The compounds were prepared as a DMSO stock and equivalent concentrations of DMSO had no effect on bacterial growth. MICs were also performed in the presence of the outer membrane permeator, polymyxin b nonapeptide (PMBN) following the same MIC method but with the following variation. The 2-fold dilution series of compound was prepared as above, then 50 μL of PMBN at a final concentration of 30 μg/mL was added to relevant wells, while 50 μL/well of blank media was added to the remaining wells. Bacteria were then added at 50 μL/well for a starting concentration as above. Thirty μg/mL of PMBN had no effect on bacterial growth. The MICs were read and defined as above. All animal procedures were performed by the contract research organization Pharmacology Discovery Services Taiwan in accordance with the Guide for the Care and Use of Laboratory Animals. The procedures were approved by the Institutional Ethics Committee of Pharmacology Discovery Services Taiwan, Ltd. (approval no. AB127662), in compliance with animal welfare legislation in Taiwan.

[3] = test system: E. faecium; test: MIC (microbroth dilution); type: cell-based, Enterococcus faecium
Experimental: as §1

[4] = test system: S. aureus NCTC 13616; test: Time-kill assay; type: cell-based; conditions: 4x MIC, 24 hours
Experimental: Time-kill assays were performed as defined previously.

[5] = test system: K. pneumoniae; test: MIC (microbroth dilution); type: cell-based, Klebsiella pneumoniae
Experimental: as §1, with “All bacterial assays were carried out in tryptic soy broth (TSB), except for Streptococcus spp. which were grown in cation-adjusted Mueller Hinton broth containing 2.5% lysed horse blood.” left out, “The compounds were prepared as a DMSO stock and equivalent concentrations of DMSO had no effect on bacterial growth.” left out, “Thirty μg/mL of PMBN had no effect on bacterial growth.” left out

[6] = test system: NorA overexpressing strain NCTC 13616; test: Reserpine growth (efflux inhibition) assay; conditions: for AUC of growth curve: biological replicates 1-3, listed as ML-77-005
Experimental: Statistical analyses were performed with GraphPad Prism V9.5.0. […] Unpaired t tests were used when comparing two samples in the gyrase assays.

[7] = Kinetic aqueous solubility; type: physicochemical; conditions: phosphate-buffered saline with 2% DMSO, pH 7.4, aqueous buffer, kinetic from dmso stock
Experimental: Kinetic aqueous solubility was determined using a standard LC-UV/MS-based assay. Test compounds were prepared from 10 mM DMSO stock solutions and diluted to a nominal concentration of 200 μM in phosphate-buffered saline (PBS, pH 7.4) containing 2% DMSO. Parallel dilutions in DMSO were used as reference standards. Samples were equilibrated at room temperature for 2 h with shaking, then filtered, and the filtrates were analyzed by LC-UV with mass spectrometric confirmation of the analyte peak. Solubility was determined by comparing the UV peak area of the PBS filtrate with those of the DMSO reference standards. The effective range of the assay was 10–200 μM.

[8] = test system: S. epidermidis; test: MIC (microbroth dilution); type: cell-based, Staphylococcus epidermidis; conditions: SE378
Experimental: as §1, with “All bacterial assays were carried out in tryptic soy broth (TSB), except for Streptococcus spp. which were grown in cation-adjusted Mueller Hinton broth containing 2.5% lysed horse blood.” left out, “The compounds were prepared as a DMSO stock and equivalent concentrations of DMSO had no effect on bacterial growth.” left out, “Thirty μg/mL of PMBN had no effect on bacterial growth.” left out

[9] = test system: Pseudomonas aeruginosa; test: MIC (microbroth dilution); type: cell-based
Experimental: as §1

[10] = test system: Acinetobacter baumannii; test: MIC (microbroth dilution); type: cell-based
Experimental: as §1

[11] = test system: E. faecalis; test: MIC (microbroth dilution); type: cell-based, Enterococcus faecalis
Experimental: as §1, with “All bacterial assays were carried out in tryptic soy broth (TSB), except for Streptococcus spp. which were grown in cation-adjusted Mueller Hinton broth containing 2.5% lysed horse blood.” left out, “The compounds were prepared as a DMSO stock and equivalent concentrations of DMSO had no effect on bacterial growth.” left out, “Thirty μg/mL of PMBN had no effect on bacterial growth.” left out

[12] = target: T1, WT DNA gyrase (Staphylococcus aureus, UniProt P0A0K8+P20831); test: DNA gyrase supercoiling inhibition assay; type: biochemical, S. aureus; conditions: WT enzyme; read-out: IC50 (converted)
T1 construct: purchased Inspiralis Ltd. (Norwich, UK)
Experimental: (§2) Gyrase inhibition was determined through biochemical assay kits from Inspiralis Ltd. (Norwich, UK), according to manufacturer’s instructions, and as described previously. Briefly, 1U of enzyme was incubated with 0.5 μg of relaxed […] DNA in the presence of compound in 1% DMSO for 30 min at 37 °C. A control reaction contained no compound but still contained 1% DMSO. The reactions were stopped through Stop Buffer addition and the DNA separated through addition of chloroform/iso-amyl alcohol (24;1). Samples were run on a 1% agarose gel at 75 V for 2 h, which was then stained with 1 μg/mL ethidium bromide and visualized using a NuGenius gel imager (Syngene). The intensity of the supercoiled DNA band was quantified using Syngene software, and the inhibition of the supercoiling of the DNA by the compounds was calculated.

[13] = target: T2, GyrA S84L mutant DNA gyrase (Staphylococcus aureus, UniProt P0A0K8+P20831, S84L); test: DNA gyrase supercoiling inhibition assay; type: biochemical, S. aureus; conditions: S84L mutant enzyme; read-out: IC50 (converted)
T2 construct: purchased Inspiralis Ltd. (Norwich, UK)
Experimental: as §2

[14] = Plasma protein binding (RED); type: in vitro ADME; conditions: pH 7.4
Experimental: Plasma protein binding was measured using a Rapid Equilibrium Dialysis (RED) assay. Test compounds and control compounds were added to plasma at 10 μM and dialyzed against phosphate-buffered saline (PBS, pH 7.4) for 4 h at 37 °C. […] The percentage of drug bound to plasma proteins was calculated by comparing the analyte response in the plasma compartment with that in the buffer compartment.

O=C(O)c1cn(C2CC2)c2cc(N3CCN(Cc4cccc5ccccc45)CC3)c(F)cc2c1=O [Compound 8, 1-Cyclopropyl-6-fluoro-7-(4-(naphthalen-1-ylmethyl)piperazin-1-yl)-4-oxo-1,4-dihydroquinoline-3-carboxylic acid]
MIC ([1]; ATCC 9144 4x (passaged with Compound 8)): 2 µg/mL
MIC ([1]; ATCC 9144 WT): 0.5 µg/mL
MIC ([1]; NCTC 13616 4x (passaged with Compound 8)): 4 µg/mL
MIC ([1]; NCTC 13616 WT): 2 µg/mL
MIC [2]: 4 µg/mL (≈ 8.48 µM)
MIC ([3]; EF205): 2 µg/mL (≈ 4.24 µM)
MIC ([3]; NCTC 12204): 2 µg/mL (≈ 4.24 µM)
time-kill profile [4]: comparable bacteriostatic profiles
MIC ([5]; Klebsiella pneumoniae, M6, read-out: MIC): 32 to 64 µg/mL (≈ 67.9 to 136 µM)
MIC ([5]; Klebsiella pneumoniae, NCTC13368): > 128 µg/mL
MIC ([5]; M6, +PMBN, in µg/mL): 0.5
MIC ([5]; NCTC 13368, +PMBN, in µg/mL): 1-2
AUC of growth curve ([6]; 0.25 MIC + R (reserpine)): 3.096 and 3.206 and 1.480
AUC of growth curve ([6]; 0.25 MIC): 3.117 and 3.088 and 3.115
AUC of growth curve ([6]; 0.5 MIC + R (reserpine)): 3.021 and 2.572 and 0.9525
AUC of growth curve ([6]; 0.5 MIC): 1.068 and 2.766 and 2.838
efflux liability in reserpine assay ([6]; 0.5x MIC with vs without reserpine): not a substrate of NorA
solubility at 2 h [7]: < 5 µM
MIC [8]: 0.25 to 2 µg/mL
MIC ([9]; NCTC 13437): 128 µg/mL (≈ 271 µM)
MIC ([9]; NCTC 13437, +PMBN): 32 µg/mL (≈ 67.9 µM)
MIC ([9]; PAO1, + PMBN): 0.125 µg/mL
MIC ([9]; Pseudomonas aeruginosa, PAO1, read-out: MIC): > 128 µg/mL
MIC ([10]; ATCC 17978, +PMBN): 0.125 µg/mL (≈ 0.265 µM)
MIC ([10]; AYE, +PMBN): 32 µg/mL (≈ 67.9 µM)
MIC ([10]; Acinetobacter baumannii, ATCC17978, ATCC 17978, read-out: MIC): 4 µg/mL (≈ 8.48 µM)
MIC ([10]; Acinetobacter baumannii, BAA1710, BAA-1710 (AYE), read-out: MIC): > 128 µg/mL
MIC ([11]; EF602): 2 µg/mL (≈ 4.24 µM)
MIC ([11]; Enterococcus faecalis, NCTC775, NCTC 775, read-out: MIC): 2 µg/mL (≈ 4.24 µM)
MIC ([11]; Enterococcus faecalis, NCTC12201, NCTC 12201, read-out: MIC): 0.125 µg/mL (≈ 0.265 µM)
MIC ([11]; Enterococcus faecalis, NCTC12204, NCTC 12204, read-out: MIC): 2 µg/mL (≈ 4.24 µM)
MIC ([11]; NCTC 775): 2 µg/mL (≈ 4.24 µM)
MIC ([11]; NCTC 12201): 0.5 µg/mL (≈ 1.06 µM)
IC50 [12]: > 271 µM
IC50 [13]: 94.9 µM
fraction unbound at 4 h, 10 μM [14]: < 0.01
